Data published in ChEMBL document CHEMBL1201862, “PubChem BioAssay data set” (2004).
Active and inactive are the calls of the source.

Columns and labels:
[1] = Trypanosoma cruzi growth suppression in host cells – NIH3T3 host cells, beta-gal luminescence, confirmation (AID 2044); assay type: functional, cell-based;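 further: intracellular parasites grown in NIH/3T3 mouse fibroblasts as host cells; luminescent beta-galactosidase reporter signal from transgenic T. cruzi replicating inside host cells; inhibitors lower the luminescence signal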
[2] = NIH3T3 cell viability loss – ATP luminescence, mouse fibroblasts, counter-screen, dose response (AID 2010); assay type: functional, cell-based;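 further: cells exposed to compound for about 90 hours before reading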
[3] = biological target: T1, Type-1 angiotensin II receptor (Homo sapiens, UniProt P30556); test: agonist activity at AGTR1 – cell-based, uHTS hits, selectivity assay for APJ receptor agonist project, dose response (AID 488865); assay type: functional;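 further: beta-arrestin recruitment to AT1 measured by enzyme fragment complementation luminescence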
T1 sequence (P30556 whole entry): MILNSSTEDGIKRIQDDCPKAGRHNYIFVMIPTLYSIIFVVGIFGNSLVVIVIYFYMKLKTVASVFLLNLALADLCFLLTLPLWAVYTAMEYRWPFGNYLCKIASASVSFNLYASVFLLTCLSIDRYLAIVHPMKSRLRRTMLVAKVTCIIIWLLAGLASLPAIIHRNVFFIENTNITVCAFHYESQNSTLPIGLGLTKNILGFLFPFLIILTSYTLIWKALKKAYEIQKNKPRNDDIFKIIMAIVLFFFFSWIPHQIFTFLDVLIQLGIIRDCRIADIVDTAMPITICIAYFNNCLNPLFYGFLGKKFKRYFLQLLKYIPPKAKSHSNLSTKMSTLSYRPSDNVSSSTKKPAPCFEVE

[4] = Luminescent dose response cell-based high throughput screening assay for inhibitors of the Janus kinase 2 mutant JAK2V617F. [Related pubchem assays: 1446 (Primary screen.), 1521 (Confirmation assay.), 1486 (Counter screen.)]; assay type: functional
[5] = Intein inhibitors as potential Tuberculosis drugs, a cytotoxicity screen. [Related pubchem assays (depositor defined):AID2221, AID2223, AID434968, AID435010, AID449749, AID449750, AID489010]; assay type: functional
HEK293 = test: EBV LMP1 TES2 canonical NF-kB signalling blockers – cell-based, HEK293, luciferase, cherry-pick, dose response (AID 588343); assay type: functional; conditions: Homo sapiens
[6] = biological target: T2, Replicative DNA helicase DnaB (Mycobacterium tuberculosis, UniProt P9WMR3); test: DnaB intein splicing inhibitors, dose response, biochemical, cell-free fluorescence (AID 449749); assay type: functional
T2 sequence (P9WMR3 whole entry): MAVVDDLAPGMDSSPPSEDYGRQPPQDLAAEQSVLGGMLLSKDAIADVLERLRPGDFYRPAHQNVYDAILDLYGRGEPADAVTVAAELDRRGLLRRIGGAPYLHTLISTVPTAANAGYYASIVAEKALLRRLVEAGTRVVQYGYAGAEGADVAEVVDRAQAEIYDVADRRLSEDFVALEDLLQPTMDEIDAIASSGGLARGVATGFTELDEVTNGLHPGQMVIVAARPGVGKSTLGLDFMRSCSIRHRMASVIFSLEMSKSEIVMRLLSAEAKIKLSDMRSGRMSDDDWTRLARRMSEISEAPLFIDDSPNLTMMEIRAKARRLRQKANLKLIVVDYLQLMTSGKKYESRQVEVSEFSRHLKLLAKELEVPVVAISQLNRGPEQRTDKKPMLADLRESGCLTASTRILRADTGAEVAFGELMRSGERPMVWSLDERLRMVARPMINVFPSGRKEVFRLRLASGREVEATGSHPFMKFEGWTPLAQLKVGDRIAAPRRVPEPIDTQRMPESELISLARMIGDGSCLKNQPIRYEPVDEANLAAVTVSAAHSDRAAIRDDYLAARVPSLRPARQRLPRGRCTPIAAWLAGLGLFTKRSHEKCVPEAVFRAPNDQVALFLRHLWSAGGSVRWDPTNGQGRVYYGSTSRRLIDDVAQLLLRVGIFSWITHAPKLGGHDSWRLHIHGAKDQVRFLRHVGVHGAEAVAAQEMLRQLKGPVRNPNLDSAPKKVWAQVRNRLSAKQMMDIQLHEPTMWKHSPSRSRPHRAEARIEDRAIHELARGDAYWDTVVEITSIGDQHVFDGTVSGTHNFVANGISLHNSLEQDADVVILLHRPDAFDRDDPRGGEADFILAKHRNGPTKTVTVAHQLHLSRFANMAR

Protein RecA = biological target: T3, Protein RecA (Mycobacterium tuberculosis, UniProt P9WHJ3); test: Fluorescence Cell-Free Homogeneous Dose Retest to Identify Inhibitors of RecA-Intein Splicing Activity. [Related pubchem assays (depositor defined):AID2097, AID2223, AID489010, AID492950]; assay type: functional
T3 sequence (P9WHJ3 whole entry): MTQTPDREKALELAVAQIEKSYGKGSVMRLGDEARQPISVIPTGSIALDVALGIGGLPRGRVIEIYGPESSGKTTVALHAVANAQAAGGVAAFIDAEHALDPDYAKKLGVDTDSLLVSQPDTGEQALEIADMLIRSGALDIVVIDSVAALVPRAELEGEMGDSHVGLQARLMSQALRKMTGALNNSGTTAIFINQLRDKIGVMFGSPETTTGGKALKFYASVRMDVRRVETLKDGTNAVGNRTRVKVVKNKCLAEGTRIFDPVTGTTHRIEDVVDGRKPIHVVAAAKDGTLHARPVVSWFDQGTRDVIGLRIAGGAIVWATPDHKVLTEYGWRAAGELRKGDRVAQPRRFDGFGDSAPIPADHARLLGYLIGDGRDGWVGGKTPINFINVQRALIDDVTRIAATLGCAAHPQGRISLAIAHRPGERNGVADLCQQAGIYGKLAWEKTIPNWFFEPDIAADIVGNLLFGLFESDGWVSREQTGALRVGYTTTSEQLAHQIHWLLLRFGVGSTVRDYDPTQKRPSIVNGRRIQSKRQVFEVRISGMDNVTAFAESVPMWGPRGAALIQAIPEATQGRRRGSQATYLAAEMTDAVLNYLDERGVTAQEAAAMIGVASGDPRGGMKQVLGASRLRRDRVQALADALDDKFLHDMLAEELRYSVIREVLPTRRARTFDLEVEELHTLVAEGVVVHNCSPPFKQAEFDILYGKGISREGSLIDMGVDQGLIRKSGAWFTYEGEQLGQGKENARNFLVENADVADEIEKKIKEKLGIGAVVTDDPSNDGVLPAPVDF

[7] = biological target: Beta-2 adrenergic receptor (Homo sapiens, UniProt P07550); test: ADRB2 activation measured by internalization – cell-based, FAP fluorogen, flow cytometry, cherry pick 1, dose response (AID 588763); assay type: functional
[8] = viability loss in HEK293T cells – cell-based, cherry-picks, cytotoxicity control for HIV Vif inhibitor project, dose response (AID 652208); assay type: functional
Coagulation factor XII = biological target: T4, Coagulation factor XII (Homo sapiens, UniProt P00748); test: Factor XIIa Dose Response Confirmation from Single Well HTS. [Related pubchem assays (depositor defined):AID701]; assay type: functional
T4 sequence (P00748 whole entry): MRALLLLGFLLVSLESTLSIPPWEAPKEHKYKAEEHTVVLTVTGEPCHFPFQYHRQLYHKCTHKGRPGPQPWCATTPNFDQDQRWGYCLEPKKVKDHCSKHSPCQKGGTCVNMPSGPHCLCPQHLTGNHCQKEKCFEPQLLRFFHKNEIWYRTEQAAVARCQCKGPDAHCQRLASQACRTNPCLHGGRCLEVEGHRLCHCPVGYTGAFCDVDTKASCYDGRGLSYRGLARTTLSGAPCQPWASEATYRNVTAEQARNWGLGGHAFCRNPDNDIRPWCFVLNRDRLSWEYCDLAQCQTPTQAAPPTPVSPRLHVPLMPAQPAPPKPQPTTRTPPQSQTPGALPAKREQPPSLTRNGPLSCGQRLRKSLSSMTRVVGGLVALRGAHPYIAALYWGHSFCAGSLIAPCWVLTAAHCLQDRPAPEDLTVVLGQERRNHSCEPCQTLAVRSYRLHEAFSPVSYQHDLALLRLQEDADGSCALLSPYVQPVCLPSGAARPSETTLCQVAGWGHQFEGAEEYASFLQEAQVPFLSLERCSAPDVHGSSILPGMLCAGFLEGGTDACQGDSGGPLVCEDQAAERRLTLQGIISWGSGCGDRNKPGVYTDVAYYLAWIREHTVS

Bcl-2-related protein A1 = biological target: T5, Bcl-2-related protein A1 (Mus musculus, UniProt Q07440); assay type: functional;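 further: confirmatory dose–response counterscreen on Bfl-1, used to check hits from a UBC13 polyubiquitin inhibitor campaign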
T5 sequence (Q07440 whole entry): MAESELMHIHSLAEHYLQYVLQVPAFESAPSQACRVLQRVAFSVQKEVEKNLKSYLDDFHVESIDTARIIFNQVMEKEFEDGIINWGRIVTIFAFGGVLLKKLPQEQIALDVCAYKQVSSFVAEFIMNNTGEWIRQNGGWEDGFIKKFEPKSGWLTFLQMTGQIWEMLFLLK

[9] = biological target: T6, Ubiquitin-conjugating enzyme E2 N (Homo sapiens, UniProt P61088); assay type: functional
T6 sequence (P61088 whole entry): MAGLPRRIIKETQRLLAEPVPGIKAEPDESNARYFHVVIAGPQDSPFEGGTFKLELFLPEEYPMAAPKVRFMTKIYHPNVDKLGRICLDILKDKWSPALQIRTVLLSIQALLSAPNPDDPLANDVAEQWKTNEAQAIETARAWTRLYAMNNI

[10] = biological target: T6, Ubiquitin-conjugating enzyme E2 N; assay type: functional; remark: listed apart in the source
[11] = biological target: Tyrosine-protein phosphatase non-receptor type 7 (Homo sapiens, UniProt P35236); test: SAR analysis of chemical inhibitors of HePTP using a Fluorescent assay - Set 2. [Related pubchem assays (depositor defined):AID1059, AID1077, AID1661, AID2085, AID521]; assay type: functional
[12] = biological target: Dual specificity protein phosphatase 3 (Homo sapiens, UniProt P51452); test: SAR VHR1 Fluorescent Assay for In Vitro dose response studies Set 2. [Related pubchem assays (depositor defined):AID1654, AID1661, AID1878]; assay type: functional
[13] = biological target: T7, G-protein coupled receptor 55 (Homo sapiens, UniProt Q9Y2T6); test: inhibition of LPI-stimulated GPR55 beta-arrestin translocation – imaging, U2OS, beta-arrestin-GFP, LPI agonist, primary screen (AID 2013); assay type: functional;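 further: antagonist potency measured as reduced agonist-driven arrestin aggregation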
Cannabinoid receptor 1 [14] = biological target: T8, Cannabinoid receptor 1 (Homo sapiens, UniProt P21554); test: SAR analysis of antagonists of the Cannabinoid Receptor 1 using an Image-Based Assay - Set 2. [Related pubchem assays (depositor defined):AID2013, AID2026]; assay type: functional
[15] = biological target: T9, G-protein coupled receptor 35 (Homo sapiens, UniProt Q9HC97); test: SAR analysis of Agonists of the GPR35 Receptor using an Image-Based Assay - Set 2. [Related pubchem assays (depositor defined):AID2013, AID2026]; assay type: functional
Cannabinoid receptor 2 [16] = biological target: T10, Cannabinoid receptor 2 (Homo sapiens, UniProt P34972); test: SAR analysis of antagonists of the Cannabinoid Receptor 2 using an Image-Based Assay. [Related pubchem assays (depositor defined):AID2013, AID2026]; assay type: functional
Cannabinoid receptor 1 [17] = biological target: T8, Cannabinoid receptor 1; test: SAR analysis of agonists of the Cannabinoid Receptor 1 using an Image-Based Assay - Set 2. [Related pubchem assays (depositor defined):AID2013, AID2026]; assay type: functional
[18] = biological target: T9, G-protein coupled receptor 35; test: SAR analysis of Antagonists of the GPR35 Receptor using an Image-Based Assay - Set 3. [Related pubchem assays (depositor defined):AID2013, AID2026]; assay type: functional
[19] = biological target: T7, G-protein coupled receptor 55; test: blockade of LPI-induced GPR55 arrestin translocation – imaging, U2OS, beta-arrestin-GFP, LPI agonist, set 2, SAR follow-up (AID 2820); assay type: functional
Cannabinoid receptor 2 [20] = biological target: T10, Cannabinoid receptor 2; test: SAR analysis of agonists of the Cannabinoid Receptor 2 using an Image-Based Assay. [Related pubchem assays (depositor defined):AID2013, AID2026]; assay type: functional
Cytochrome P450 2C19 = Cytochrome P450 2C19 (Homo sapiens, UniProt P33261); test: Cytochrome panel assay with activity outcomes. Panel member name: p450-cyp2c19 Compounds with AC50 equal or less than 10 uM are considered active; assay type: functional; conditions: read-out: AC50
Cytochrome P450 3A4 = Cytochrome P450 3A4 (Homo sapiens, UniProt P08684);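 further: CYP3A4 tested as one member of a cytochrome P450 panel screen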
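Wherever CC50 is given: cells exposed to compound for 72 hours before luminescence readout.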

T7 sequence (Q9Y2T6 whole entry): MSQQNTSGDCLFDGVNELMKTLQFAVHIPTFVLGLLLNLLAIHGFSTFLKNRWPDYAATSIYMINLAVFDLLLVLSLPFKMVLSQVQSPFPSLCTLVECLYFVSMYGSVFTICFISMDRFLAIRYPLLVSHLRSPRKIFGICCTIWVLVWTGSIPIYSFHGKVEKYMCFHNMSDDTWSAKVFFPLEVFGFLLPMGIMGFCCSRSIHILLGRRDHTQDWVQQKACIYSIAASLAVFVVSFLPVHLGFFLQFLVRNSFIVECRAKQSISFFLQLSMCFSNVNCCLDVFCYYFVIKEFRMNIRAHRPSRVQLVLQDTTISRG
T10 sequence (P34972 whole entry): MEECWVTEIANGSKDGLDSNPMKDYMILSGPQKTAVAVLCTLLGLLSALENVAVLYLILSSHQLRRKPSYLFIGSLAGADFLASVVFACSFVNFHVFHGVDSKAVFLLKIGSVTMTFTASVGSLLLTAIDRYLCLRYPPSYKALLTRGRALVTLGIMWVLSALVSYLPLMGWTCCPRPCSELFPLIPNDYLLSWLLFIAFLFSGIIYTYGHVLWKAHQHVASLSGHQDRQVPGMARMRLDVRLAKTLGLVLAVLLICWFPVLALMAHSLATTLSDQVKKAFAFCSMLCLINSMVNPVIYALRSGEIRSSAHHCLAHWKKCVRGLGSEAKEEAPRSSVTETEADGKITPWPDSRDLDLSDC
T8 sequence (P21554 whole entry): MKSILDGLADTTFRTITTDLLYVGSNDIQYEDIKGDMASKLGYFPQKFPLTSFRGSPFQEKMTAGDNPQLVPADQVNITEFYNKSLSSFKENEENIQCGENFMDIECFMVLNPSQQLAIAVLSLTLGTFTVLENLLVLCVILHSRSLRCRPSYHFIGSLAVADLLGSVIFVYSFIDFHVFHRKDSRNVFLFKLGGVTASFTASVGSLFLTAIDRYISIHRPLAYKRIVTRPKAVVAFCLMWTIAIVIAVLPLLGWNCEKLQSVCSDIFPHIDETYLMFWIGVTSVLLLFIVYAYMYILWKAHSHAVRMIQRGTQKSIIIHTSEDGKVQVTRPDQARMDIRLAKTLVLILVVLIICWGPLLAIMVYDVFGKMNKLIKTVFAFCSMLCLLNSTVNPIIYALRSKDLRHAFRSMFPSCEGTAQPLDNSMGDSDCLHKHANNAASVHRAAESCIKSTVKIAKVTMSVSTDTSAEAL
T9 sequence (Q9HC97 whole entry): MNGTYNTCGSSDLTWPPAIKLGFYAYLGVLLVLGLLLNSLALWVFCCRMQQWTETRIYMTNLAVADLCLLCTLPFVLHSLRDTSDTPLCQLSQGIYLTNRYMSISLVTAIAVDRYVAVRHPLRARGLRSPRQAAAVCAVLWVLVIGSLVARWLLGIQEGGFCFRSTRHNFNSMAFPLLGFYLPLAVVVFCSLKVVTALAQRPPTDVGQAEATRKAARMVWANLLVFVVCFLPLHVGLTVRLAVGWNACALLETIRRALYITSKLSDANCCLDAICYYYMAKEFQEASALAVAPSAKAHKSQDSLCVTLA
Tyrosine-protein phosphatase non-receptor type 7, sequence (P35236 whole entry): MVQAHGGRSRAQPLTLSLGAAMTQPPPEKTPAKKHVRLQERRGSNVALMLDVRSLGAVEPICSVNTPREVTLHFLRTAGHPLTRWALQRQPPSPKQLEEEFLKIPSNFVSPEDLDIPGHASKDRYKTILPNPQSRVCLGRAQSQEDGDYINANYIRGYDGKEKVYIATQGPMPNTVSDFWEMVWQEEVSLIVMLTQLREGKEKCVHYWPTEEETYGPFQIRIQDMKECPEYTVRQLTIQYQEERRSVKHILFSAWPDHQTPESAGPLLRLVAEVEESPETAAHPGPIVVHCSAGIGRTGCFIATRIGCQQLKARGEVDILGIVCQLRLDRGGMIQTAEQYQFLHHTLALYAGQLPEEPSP
Cytochrome P450 3A4, sequence (P08684 whole entry): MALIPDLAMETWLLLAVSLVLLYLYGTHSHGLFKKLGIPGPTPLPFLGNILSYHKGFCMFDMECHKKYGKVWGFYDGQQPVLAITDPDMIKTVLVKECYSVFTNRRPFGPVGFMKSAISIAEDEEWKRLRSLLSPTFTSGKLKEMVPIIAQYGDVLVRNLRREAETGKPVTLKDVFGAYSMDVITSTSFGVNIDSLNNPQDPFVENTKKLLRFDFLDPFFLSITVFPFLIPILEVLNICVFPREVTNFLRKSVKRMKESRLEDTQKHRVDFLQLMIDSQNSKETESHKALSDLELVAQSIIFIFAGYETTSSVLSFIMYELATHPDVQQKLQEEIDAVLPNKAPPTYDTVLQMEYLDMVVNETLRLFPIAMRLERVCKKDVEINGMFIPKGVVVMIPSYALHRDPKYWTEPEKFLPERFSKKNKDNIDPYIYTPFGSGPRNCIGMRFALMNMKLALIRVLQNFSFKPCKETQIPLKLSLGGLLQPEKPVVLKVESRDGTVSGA
Dual specificity protein phosphatase 3, sequence (P51452 whole entry): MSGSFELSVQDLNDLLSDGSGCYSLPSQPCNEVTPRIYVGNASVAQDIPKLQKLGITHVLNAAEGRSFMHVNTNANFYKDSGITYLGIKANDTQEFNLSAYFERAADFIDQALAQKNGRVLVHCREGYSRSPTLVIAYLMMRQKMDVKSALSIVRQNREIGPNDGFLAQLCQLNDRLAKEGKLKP
Beta-2 adrenergic receptor, sequence (P07550 whole entry): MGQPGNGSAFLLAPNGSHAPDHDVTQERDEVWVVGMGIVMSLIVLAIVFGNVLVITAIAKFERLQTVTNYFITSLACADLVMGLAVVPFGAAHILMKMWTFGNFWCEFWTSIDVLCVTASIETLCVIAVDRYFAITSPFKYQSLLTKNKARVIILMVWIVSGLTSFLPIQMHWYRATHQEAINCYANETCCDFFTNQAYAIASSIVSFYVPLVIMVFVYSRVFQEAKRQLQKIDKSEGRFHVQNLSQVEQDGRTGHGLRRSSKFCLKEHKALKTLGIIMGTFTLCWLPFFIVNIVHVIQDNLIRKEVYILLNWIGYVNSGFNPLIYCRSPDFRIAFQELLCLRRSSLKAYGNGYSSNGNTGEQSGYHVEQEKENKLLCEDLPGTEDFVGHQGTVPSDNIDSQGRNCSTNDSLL
Cytochrome P450 2C19, sequence (P33261 whole entry): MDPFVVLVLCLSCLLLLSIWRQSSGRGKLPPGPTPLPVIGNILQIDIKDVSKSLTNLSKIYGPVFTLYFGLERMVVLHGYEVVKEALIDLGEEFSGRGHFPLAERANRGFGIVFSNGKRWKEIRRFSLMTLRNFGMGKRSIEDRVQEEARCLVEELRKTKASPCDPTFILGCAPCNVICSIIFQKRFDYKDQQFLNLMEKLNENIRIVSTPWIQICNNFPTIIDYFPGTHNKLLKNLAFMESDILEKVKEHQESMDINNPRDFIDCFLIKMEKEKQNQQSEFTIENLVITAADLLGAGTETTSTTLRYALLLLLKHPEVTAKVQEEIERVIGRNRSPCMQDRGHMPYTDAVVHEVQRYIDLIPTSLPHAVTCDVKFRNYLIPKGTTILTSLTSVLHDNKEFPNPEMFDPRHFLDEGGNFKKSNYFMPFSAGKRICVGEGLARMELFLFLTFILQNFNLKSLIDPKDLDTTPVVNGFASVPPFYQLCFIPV

Clc1cccc(CN2CCc3c([nH]c4ccccc34)C2)c1
EC50 [1]: 3.73 µM (active)
EC50 [2]: > 60 µM (not active)
EC50 [3]: > 100 µM (inactive)

Clc1ccc(-n2nnnc2Sc2ncnc3sccc23)cc1
IC50 [4]: 0.787 µM (active)
CC50 [5]: 9.7 µM (active)
AC50 (HEK293): 10.7 µM (active)
AC50 [6]: 3.76 µM (active)
EC50 (Protein RecA): 1.03 µM (active)
EC50 [7]: 10.5 µM (inactive)
AC50 [8]: 10.8 µM (active)

N#Cc1ccc(NC(=O)COC(=O)CNC(=O)C2CCCCC2)cc1
IC50 (Coagulation factor XII): > 50 µM (inactive)

COc1ccc(OC)c(/C=C/C(=O)OCC(=O)c2c(N)n(C)c(=O)n(C)c2=O)c1
IC50 (Bcl-2-related protein A1): > 20 µM (inactive)
IC50 [9]: 14 µM (active)
IC50 [10]: > 20 µM (inactive)

Nc1c(C(=O)N2CCOCC2)sc(=S)n1-c1ccccc1
IC50 [11]: > 100 µM (inactive)
IC50 [12]: 85.5 µM (active)

Cc1cc(C)c2nc(-c3ccccn3)cc(C(=O)Nc3ccc(S(=O)(=O)Nc4cc(C)on4)cc3)c2c1
IC50 [13]: 1.82 µM (active)
IC50 (Cannabinoid receptor 1 [14]): > 32 µM (inactive)
EC50 [15]: > 32 µM (inactive)
IC50 (Cannabinoid receptor 2 [16]): > 32 µM (inactive)
EC50 (Cannabinoid receptor 1 [17]): > 32 µM (inactive)
IC50 [18]: > 32 µM (inactive)
IC50 [19]: 0.709 µM (active)
EC50 (Cannabinoid receptor 2 [20]): > 32 µM (inactive)
AC50 (Cytochrome P450 2C19): 17.8 µM (inconclusive)
AC50 (Cytochrome P450 3A4): 17.8 µM (inconclusive)
